Assay results as given in US8648071B2, “Hydrazonamide compounds that modulate Hsp90 activity” (Synta Pharmaceuticals Corp., priority 2008, dated 2014).

Tested on: Her2
Assay: Degradation of Her2 in BT-474 cells, Western blot (Method 1)
Type: cell-based, human
Conditions: 0.5 μM, overnight
Method: Human high-Her2 breast carcinoma BT474 (HTB-20), SK-BR-3 (HTB-30) and MCF-7 breast carcinoma (HTB-22) from American Type Culture Collection, VA, USA were grown in Dulbecco's modified Eagle's medium with 4 mM L-glutamine and antibiotics (100 IU/ml penicillin and 100 μg/ml streptomycine; GibcoBRL). To obtain exponential cell growth, cells were trypsinized, counted and seeded at a cell density of 0.5×10^6 cells/ml regularly, every 3 days. All, experiments were performed on day 1 after cell passage.
BT-474 cells are treated with 0.5 μM, 2 μM, or 5 μM of 17AAG (a positive control) or 0.5 μM, 2 μM, or 5 μM of a compound of the invention overnight in DMEM medium. After treatment, each cytoplasmic sample is prepared from 1×10^6 cells by incubation of cell lysis buffer (#9803, Cell Signaling Technology) on ice for 10 minutes. The resulting supernatant used as the cytosol fractions is dissolved with sample buffer for SDS-PAGE and run on a SDS-PAGE gel, blotted onto a nitrocellulose membrane by using semi-dry transfer. Non-specific binding to nitrocellulose is blocked with 5% skim milk in TBS with 0.5% Tween at room temperature for 1 hour, then probed with anti-Her2/ErB2 mAb (rabbit IgG, #2242, Cell Signaling) and anti-Tubulin (T9026, Sigma) as housekeeping control protein. […]

## C=CCNC1=C2C[C@@H](C)C[C@H](OC)[C@H](O)[C@@H](C)/C=C(\C)[C@H](OC(N)=O)[C@@H](OC)/C=C\C=C(/C)C(=O)NC(=CC1=O)C2=O [Compound 17AAG, 17-allylamino-17-demethoxygeldanamycin]
  degradation of Her2: partial degradation of Her2
